Data as given in PubChem BioAssay AID330 (DTP/NCI, 2004).
Where “and” joins values, the source holds several entries; their conditions need not be identical. Equal entries are not always repeated. Inconclusive results and toxic doses are left out. How the source made its calls: active means survival T/C of 150% or more; inactive means T/C below 125% in these data.

System: P388 leukemia ip, CD2F1 mice, survival T/C
Assay: NCI In Vivo Anticancer Drug Screen. Data for tumor model P388 Leukemia (intraperitoneal) in CD2F1 (CDF1) mice
Conditions: endpoint: median survival time, higher = longer survival
How it was run: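 Mice carrying the transplanted tumor received test compound or vehicle. Survival was recorded in each group, and the value is the treated-group measurement divided by that of the vehicle-treated control group.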

[1] = dose: 25.0 mg/kg/injection, schedule: Q01DX005 (ip), vehicle: saline
[2] = dose: 50.0 mg/kg/injection, schedule: Q01DX005 (ip), vehicle: saline
[3] = dose: 100.0 mg/kg/injection, schedule: Q01DX005 (ip), vehicle: saline
[4] = dose: 200.0 mg/kg/injection, schedule: Q01DX005 (ip), vehicle: saline
[5] = dose: 50.0 mg/kg/injection, schedule: Q01DX005 (ip), vehicle: saline with Tween-80
[6] = dose: 100.0 mg/kg/injection, schedule: Q01DX005 (ip), vehicle: saline with Tween-80
[7] = dose: 12.5 mg/kg/injection, schedule: Q01DX009 (ip), vehicle: saline with Tween-80
[8] = dose: 25.0 mg/kg/injection, schedule: Q01DX009 (ip), vehicle: saline with Tween-80
[9] = dose: 50.0 mg/kg/injection, schedule: Q01DX009 (ip), vehicle: saline with Tween-80
[10] = dose: 50.0 mg/kg/injection, schedule: Q01DX009 (ip), vehicle: Klucel (hydroxypropylcellulose) (HPC)

Measured: T/C

N#CC1(OC2OC(CO)C(O)C(O)C2O)C=CC(OS(=O)(=O)O)C1 (configuration not stated)
inactive: [1] 103 % of control | [2] 100 % of control | [3] 116 % of control | [4] 97 % of control

O=C(Nc1ccccc1-c1ccccc1)c1cccc2ccccc12
inactive: [5] 106 % of control | [6] 94 % of control | dose: 200.0 mg/kg/injection, schedule: Q01DX005 (ip), vehicle: saline with Tween-80 90 % of control

O=[N+]([O-])c1ccc(CS(=O)(=O)c2cccs2)o1
inactive: dose: 50.0 mg/kg/injection, schedule: Q01DX009 (ip), vehicle: suspension in saline 106 % of control | dose: 100.0 mg/kg/injection, schedule: Q01DX009 (ip), vehicle: suspension in saline 100 % of control

Nc1ncnc2c1c(-c1ccccc1)cn2-c1ccc(I)cc1
inactive: dose: 60.0 mg/kg/injection, schedule: Q01DX005 (ip), vehicle: saline with Tween-80 103 % of control | dose: 120.0 mg/kg/injection, schedule: Q01DX005 (ip), vehicle: saline with Tween-80 100 % of control | dose: 240.0 mg/kg/injection, schedule: Q01DX005 (ip), vehicle: saline with Tween-80 96 % of control

COc1ccc(C(O)C2c3c(cc4c(c3OC)OCO4)CCN2C)c(CO)c1OC (configuration not stated)
inactive: dose: 12.5 mg/kg/injection, schedule: Q01DX001 (ip), vehicle: Klucel (hydroxypropylcellulose) (HPC) 88 % of control | dose: 25.0 mg/kg/injection, schedule: Q01DX001 (ip), vehicle: Klucel (hydroxypropylcellulose) (HPC) 88 % of control | dose: 50.0 mg/kg/injection, schedule: Q01DX001 (ip), vehicle: Klucel (hydroxypropylcellulose) (HPC) 94 % of control

NC(N)=NC(N)=Nc1c(F)c(F)c(F)c(F)c1F
inactive: dose: 6.25 mg/kg/injection, schedule: Q01DX009 (ip), vehicle: saline with Tween-80 107 % of control | [7] 100 % of control | [8] 101 % of control and 113 % of control | [9] 116 % of control

C[n+]1c2n(c3ccccc31)CCn1c-2[n+](C)c2ccccc21
inactive: dose: 12.5 mg/kg/injection, schedule: Q01DX009 (ip), vehicle: Klucel (hydroxypropylcellulose) (HPC) 100 % of control and 103 % of control and 117 % of control | dose: 25.0 mg/kg/injection, schedule: Q01DX009 (ip), vehicle: Klucel (hydroxypropylcellulose) (HPC) 102 % of control and 103 % of control (2×) | [10] 100 % of control and 120 % of control and 96 % of control

COc1cc2c(cc1OC)C(OC)N(C)c1c-2ccc2cc3c(cc12)OCO3 (configuration not stated)
inactive: dose: 2.0 mg/kg/injection, schedule: Q01DX009 (ip), vehicle: water 122 % of control | dose: 2.0 mg/kg/injection, schedule: Q03HX008 (ip), vehicle: water 109 % of control | dose: 4.0 mg/kg/injection, schedule: Q01DX009 (oral), vehicle: water 104 % of control | dose: 4.0 mg/kg/injection, schedule: Q01DX009 (sc), vehicle: water 104 % of control | dose: 4.0 mg/kg/injection, schedule: Q03HX008 (ip), vehicle: water 122 % of control | dose: 8.0 mg/kg/injection, schedule: Q01DX009 (oral), vehicle: water 100 % of control | dose: 8.0 mg/kg/injection, schedule: Q01DX009 (sc), vehicle: water 100 % of control | dose: 8.0 mg/kg/injection, schedule: Q04DX003 (ip), vehicle: water 119 % of control | dose: 16.0 mg/kg/injection, schedule: Q01DX001 (ip), vehicle: water 107 % of control | dose: 16.0 mg/kg/injection, schedule: Q01DX009 (oral), vehicle: water 101 % of control | dose: 16.0 mg/kg/injection, schedule: Q01DX009 (sc), vehicle: water 97 % of control | dose: 16.0 mg/kg/injection, schedule: Q04DX003 (ip), vehicle: water 122 % of control | dose: 16.0 mg/kg/injection, schedule: Q08DX002 (ip), vehicle: water 109 % of control | dose: 32.0 mg/kg/injection, schedule: Q01DX001 (ip), vehicle: water 104 % of control | dose: 32.0 mg/kg/injection, schedule: Q01DX009 (ip), vehicle: saline 90 % of control | dose: 32.0 mg/kg/injection, schedule: Q01DX009 (oral), vehicle: water 101 % of control | dose: 32.0 mg/kg/injection, schedule: Q01DX009 (sc), vehicle: water 88 % of control | dose: 32.0 mg/kg/injection, schedule: Q04DX003 (ip), vehicle: water 124 % of control | dose: 32.0 mg/kg/injection, schedule: Q08DX002 (ip), vehicle: water 119 % of control | dose: 37.5 mg/kg/injection, schedule: Q01DX009 (ip), vehicle: saline with Tween-80 118 % of control | dose: 64.0 mg/kg/injection, schedule: Q01DX001 (ip), vehicle: water 106 % of control | dose: 64.0 mg/kg/injection, schedule: Q01DX009 (oral), vehicle: water 109 % of control | dose: 64.0 mg/kg/injection, schedule: Q04DX003 (ip), vehicle: water 106 % of control | dose: 64.0 mg/kg/injection, schedule: Q08DX002 (ip), vehicle: water 109 % of control | dose: 75.0 mg/kg/injection, schedule: Q01DX009 (ip), vehicle: saline with Tween-80 86 % of control | dose: 150.0 mg/kg/injection, schedule: Q04DX003 (ip), vehicle: saline with Tween-80 90 % of control
active: dose: 25.0 mg/kg/injection, schedule: Q01DX009 (ip), vehicle: other 158 % of control | dose: 44.0 mg/kg/injection, schedule: Q04DX003 (ip), vehicle: saline with Tween-80 154 % of control | dose: 66.0 mg/kg/injection, schedule: Q04DX003 (ip), vehicle: saline with Tween-80 154 % of control and 181 % of control

Cc1cc(C)n(-c2ccc(S(=O)(=O)N3CC(=O)N(c4ccccc4)C3=S)cc2)n1
inactive: [5] 95 % of control | [6] 93 % of control

Cc1nn(-c2nc(-c3ccccc3)cs2)c(C)c1C
inactive: [10] 98 % of control | dose: 100.0 mg/kg/injection, schedule: Q01DX009 (ip), vehicle: Klucel (hydroxypropylcellulose) (HPC) 96 % of control | dose: 200.0 mg/kg/injection, schedule: Q01DX009 (ip), vehicle: Klucel (hydroxypropylcellulose) (HPC) 101 % of control

CP1(=O)CCC23CCCCC21O3 (configuration not stated)
inactive: dose: 50.0 mg/kg/injection, schedule: Q01DX009 (ip), vehicle: saline 104 % of control | dose: 100.0 mg/kg/injection, schedule: Q01DX009 (ip), vehicle: saline 111 % of control | dose: 200.0 mg/kg/injection, schedule: Q01DX009 (ip), vehicle: saline 95 % of control

C=C1CC2(CC(C(=C)C)CC=C2C)OC1=O (configuration not stated)
inactive: dose: 100.0 mg/kg/injection, schedule: Q01DX001 (ip), vehicle: saline 101 % of control | dose: 200.0 mg/kg/injection, schedule: Q01DX001 (ip), vehicle: saline 104 % of control | dose: 400.0 mg/kg/injection, schedule: Q01DX001 (ip), vehicle: saline 109 % of control

[N-]=[N+]=NC1(N=[N+]=[N-])C(=O)Nc2ccccc2C1=O (configuration not stated)
inactive: dose: 50.0 mg/kg/injection, schedule: Q01DX005 (ip), vehicle: Klucel (hydroxypropylcellulose) (HPC) 93 % of control | dose: 100.0 mg/kg/injection, schedule: Q01DX005 (ip), vehicle: Klucel (hydroxypropylcellulose) (HPC) 103 % of control | dose: 200.0 mg/kg/injection, schedule: Q01DX005 (ip), vehicle: Klucel (hydroxypropylcellulose) (HPC) 107 % of control

COc1cc2c(cc1OC)C(CCN1C(=O)CCC1=O)=NCC2
inactive: dose: 50.0 mg/kg/injection, schedule: Q01DX009 (ip), vehicle: saline sonified 100 % of control | dose: 100.0 mg/kg/injection, schedule: Q01DX009 (ip), vehicle: saline sonified 100 % of control | dose: 200.0 mg/kg/injection, schedule: Q01DX009 (ip), vehicle: saline sonified 95 % of control

O=C1CN(C2OC(CO)C(O)C2O)C(=O)NC1=O (configuration not stated)
inactive: [1] 112 % of control | [2] 113 % of control | dose: 50.0 mg/kg/injection, schedule: Q01DX005 (ip), vehicle: suspension in saline 100 % of control | [3] 99 % of control and 116 % of control | dose: 100.0 mg/kg/injection, schedule: Q01DX005 (ip), vehicle: suspension in saline 107 % of control | [4] 116 % of control | dose: 200.0 mg/kg/injection, schedule: Q01DX005 (ip), vehicle: suspension in saline 109 % of control | dose: 400.0 mg/kg/injection, schedule: Q01DX005 (ip), vehicle: suspension in saline 116 % of control

C[C@H]1C[C@H]2[C@@H]3CC[C@](O)(C(=O)CO)[C@@]3(C)C[C@H](O)[C@]2(F)[C@@]2(C)C=CC(=O)C=C12
inactive: [7] 95 % of control | [8] 104 % of control | [9] 104 % of control | dose: 100.0 mg/kg/injection, schedule: Q04DX003 (ip), vehicle: saline with Tween-80 109 % of control | dose: 200.0 mg/kg/injection, schedule: Q04DX003 (ip), vehicle: saline with Tween-80 109 % of control | dose: 400.0 mg/kg/injection, schedule: Q04DX003 (ip), vehicle: saline with Tween-80 90 % of control
